In patent publication US8067042B1 (Mutual Pharmaceutical Company, Inc., priority 2007, dated 2011):
“And” between values parts separate entries of the source, which are not always exact repeats. Equal values may be shown once. Read-outs that look alike come from different tables or passages of the source. Marks after values point to notes of the source that are not given here.

Legend:
[1] = biological target: T1, Human CYP2A6 + P450 Reductase + Cytochrome b5 SUPERSOMES (Homo sapiens, UniProt P11509)
T1 sequence (P11509 1-494): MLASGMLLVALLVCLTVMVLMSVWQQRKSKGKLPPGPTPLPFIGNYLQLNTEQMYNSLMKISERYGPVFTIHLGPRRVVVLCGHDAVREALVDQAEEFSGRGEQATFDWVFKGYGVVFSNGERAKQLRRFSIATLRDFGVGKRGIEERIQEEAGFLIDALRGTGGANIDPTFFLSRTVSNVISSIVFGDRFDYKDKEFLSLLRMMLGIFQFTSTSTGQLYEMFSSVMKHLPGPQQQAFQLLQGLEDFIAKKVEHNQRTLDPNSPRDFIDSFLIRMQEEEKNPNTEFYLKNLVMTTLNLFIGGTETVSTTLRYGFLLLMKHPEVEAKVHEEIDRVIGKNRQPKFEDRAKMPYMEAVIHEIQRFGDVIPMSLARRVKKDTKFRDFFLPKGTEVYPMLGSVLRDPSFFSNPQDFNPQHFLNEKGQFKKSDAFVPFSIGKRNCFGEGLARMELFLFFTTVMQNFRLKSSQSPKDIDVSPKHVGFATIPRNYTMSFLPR
Method: (§1) In this study, individual CYP isoforms expressed from human cDNA and P450 reductase cDNA were used (BD SUPERSOMES™ Enzymes, BD Biosciences Discovery Labware, Woburn, Mass.). SUPERSOMES™ are microsomes from baculovirus-infected insect cells containing singly expressed recombinant human CYP enzymes.
(§2) After a 5-minute preincubation, an appropriate amount of the appropriate buffer was added to the reaction mixtures to make the final volume of 0.5 mL. The incubations were continued for 60 minutes.
(§3) All incubation reactions were terminated by adding 0.5 mL methanol, and the samples were transferred to cryovials and stored at −70±10° C. until analysis.

[2] = biological target: Human CYP2C19 + P450 Reductase + Cytochrome b5 SUPERSOMES (Homo sapiens, UniProt P33261)
Method: as §1, §2, §3

[3] = biological target: T2, Human CYP2C8 + P450 Reductase + Cytochrome b5 SUPERSOMES (Homo sapiens, UniProt P10632)
T2 sequence (P10632 1-490): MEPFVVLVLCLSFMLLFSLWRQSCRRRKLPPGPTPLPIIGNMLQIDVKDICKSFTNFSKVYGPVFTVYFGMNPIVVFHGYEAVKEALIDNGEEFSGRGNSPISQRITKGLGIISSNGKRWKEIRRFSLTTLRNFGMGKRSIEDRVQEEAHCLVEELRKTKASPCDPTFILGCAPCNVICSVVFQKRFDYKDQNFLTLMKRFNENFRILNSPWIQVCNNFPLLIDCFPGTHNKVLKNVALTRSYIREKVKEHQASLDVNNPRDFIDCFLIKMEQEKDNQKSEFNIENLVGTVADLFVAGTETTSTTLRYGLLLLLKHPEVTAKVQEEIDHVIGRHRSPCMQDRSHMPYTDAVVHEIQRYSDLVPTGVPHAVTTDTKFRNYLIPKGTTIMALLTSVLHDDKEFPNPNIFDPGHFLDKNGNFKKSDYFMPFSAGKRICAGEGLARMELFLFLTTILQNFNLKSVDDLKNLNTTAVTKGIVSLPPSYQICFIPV
Method: as §1, §2, §3

[4] = biological target: Human CYP2E1 + P450 Reductase + Cytochrome b5 SUPERSOMES (Homo sapiens, UniProt P05181)
Method: as §1, §2, §3

[5] = biological target: Human CYP3A4 + P450 Reductase + Cytochrome b5 SUPERSOMES (Homo sapiens, UniProt P08684)
Method: as §1, §2, §3

CYP2C9 = CYP2C9 (Homo sapiens, UniProt P11712)
Method: The stock solutions were added to incubation mixtures to obtain the final concentrations of 5 and 50 μM, each containing 1% acetonitrile.
Microsomes were prepared by differential centrifugation of liver homogenates pooled from at least ten human donors.
After a 5 minute preincubation, nicotinamide adenine dinucleotide phosphate (NADPH) regenerating system (NRS; 1.7 mg/mL β-NADP, 7.8 mg/mL glucose-6-phosphate, and 6 units/mL glucose-6-phosphate dehydrogenase in 2% sodium bicarbonate solution) was added to initiate the reaction. The final incubation volume was 0.5 mL. Incubations were continued for 60 minutes.
All incubations were conducted at 37±1° C. in a shaking water bath. All incubations were carried out in triplicates.
After a 5-minute preincubation, 2% sodium bicarbonate solution was added to the incubation mixtures. The final incubation volume was 0.5 mL. Incubations were continued for 60 minutes.
Incubation reactions, including the matrix controls and metabolic negative controls, were terminated by adding 0.5 mL methanol.
The samples were analyzed on a Supelcosil LC-18 column (3μ, 120 Å, 3.0×100 mm).

CYP2E1 = CYP2E1 (Homo sapiens, UniProt P05181); format: in vitro ADME; parameters: purchased BD Biosciences Discovery Labware, Woburn, Mass; host or cells: baculovirus-infected insect cells; conditions: 50 μM megestrol acetate, 20 pmol CYP2E1
[6] = 5 μM, 5 pmol enzyme, listed as megestrol acetate
[7] = 5 μM, 20 pmol enzyme, listed as megestrol acetate
[8] = 50 μM, 5 pmol enzyme, listed as megestrol acetate
[9] = 50 μM, 20 pmol enzyme, listed as megestrol acetate

Human CYP3A4 + P450 Reductase + Cytochrome b5 SUPERSOMES, sequence (P08684 whole entry): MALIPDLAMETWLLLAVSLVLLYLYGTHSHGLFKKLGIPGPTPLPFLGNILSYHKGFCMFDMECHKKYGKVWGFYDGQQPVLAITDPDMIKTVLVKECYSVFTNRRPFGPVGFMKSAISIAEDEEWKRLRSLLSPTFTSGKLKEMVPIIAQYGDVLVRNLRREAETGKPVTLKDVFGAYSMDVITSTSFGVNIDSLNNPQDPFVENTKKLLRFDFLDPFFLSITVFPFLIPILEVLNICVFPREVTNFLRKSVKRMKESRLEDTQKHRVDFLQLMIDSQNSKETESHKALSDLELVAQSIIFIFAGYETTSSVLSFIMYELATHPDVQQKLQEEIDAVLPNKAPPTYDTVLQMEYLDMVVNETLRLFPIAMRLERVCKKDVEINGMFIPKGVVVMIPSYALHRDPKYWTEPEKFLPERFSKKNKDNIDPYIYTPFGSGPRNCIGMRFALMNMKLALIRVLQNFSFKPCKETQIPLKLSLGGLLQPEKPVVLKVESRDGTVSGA
Human CYP2C19 + P450 Reductase + Cytochrome b5 SUPERSOMES, sequence (P33261 whole entry): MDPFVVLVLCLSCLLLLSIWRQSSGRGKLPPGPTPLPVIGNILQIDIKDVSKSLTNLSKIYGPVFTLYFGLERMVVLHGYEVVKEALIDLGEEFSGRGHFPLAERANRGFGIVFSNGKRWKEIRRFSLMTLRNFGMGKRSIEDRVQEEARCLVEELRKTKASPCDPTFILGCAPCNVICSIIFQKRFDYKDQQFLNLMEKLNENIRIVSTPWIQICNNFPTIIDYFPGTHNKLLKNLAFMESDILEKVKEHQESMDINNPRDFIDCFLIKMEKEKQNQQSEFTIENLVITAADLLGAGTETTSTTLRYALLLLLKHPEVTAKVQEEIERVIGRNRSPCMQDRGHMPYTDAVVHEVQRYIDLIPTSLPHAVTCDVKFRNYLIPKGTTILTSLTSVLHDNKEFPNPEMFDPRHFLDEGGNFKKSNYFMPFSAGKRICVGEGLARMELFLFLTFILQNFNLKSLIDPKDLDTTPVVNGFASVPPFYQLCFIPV
Human CYP2E1 + P450 Reductase + Cytochrome b5 SUPERSOMES, sequence (P05181 whole entry): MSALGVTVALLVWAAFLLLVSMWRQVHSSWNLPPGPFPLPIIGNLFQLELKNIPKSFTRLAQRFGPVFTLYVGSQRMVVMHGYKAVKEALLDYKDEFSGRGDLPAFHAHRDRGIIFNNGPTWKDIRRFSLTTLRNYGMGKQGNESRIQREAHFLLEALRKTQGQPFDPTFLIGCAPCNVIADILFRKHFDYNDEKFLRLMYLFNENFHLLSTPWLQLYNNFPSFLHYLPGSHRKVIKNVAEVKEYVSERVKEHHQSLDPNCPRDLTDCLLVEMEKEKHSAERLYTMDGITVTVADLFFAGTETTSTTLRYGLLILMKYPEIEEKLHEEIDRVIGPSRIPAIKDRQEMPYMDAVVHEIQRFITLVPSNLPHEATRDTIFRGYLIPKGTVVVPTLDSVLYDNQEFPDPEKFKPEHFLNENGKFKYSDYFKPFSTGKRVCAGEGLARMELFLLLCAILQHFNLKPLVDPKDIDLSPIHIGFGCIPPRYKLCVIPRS
CYP2C9, sequence (P11712 whole entry): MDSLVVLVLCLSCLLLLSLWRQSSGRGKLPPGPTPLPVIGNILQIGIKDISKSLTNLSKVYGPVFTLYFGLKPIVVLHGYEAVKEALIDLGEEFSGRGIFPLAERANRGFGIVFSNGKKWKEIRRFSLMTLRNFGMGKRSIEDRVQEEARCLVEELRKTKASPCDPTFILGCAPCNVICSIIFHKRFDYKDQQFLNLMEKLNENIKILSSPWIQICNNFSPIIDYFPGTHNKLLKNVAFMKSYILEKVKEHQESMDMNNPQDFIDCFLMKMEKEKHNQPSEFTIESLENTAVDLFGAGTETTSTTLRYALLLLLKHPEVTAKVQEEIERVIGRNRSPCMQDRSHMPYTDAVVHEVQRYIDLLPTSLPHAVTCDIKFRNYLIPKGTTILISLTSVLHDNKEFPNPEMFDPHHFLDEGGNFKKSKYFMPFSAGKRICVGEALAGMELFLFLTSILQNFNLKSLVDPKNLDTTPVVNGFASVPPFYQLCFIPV
CYP2E1, sequence (P05181 whole entry): as the sequence (P05181 whole entry) above

CC(=O)O[C@]1(C(C)=O)CC[C@H]2[C@@H]3C=C(C)C4=CC(=O)CC[C@]4(C)[C@H]3CC[C@@]21C [Megestrol Acetate, 17 α-acetyloxy-6-methylpregna-4,6-diene-3,20-dione]
Individual Raw Data Observed ([1]; 5 μM, 5 pmol enzyme): 2.313 µM and 2.35 µM and 2.527 µM
Percent of Parent Disappearance Individual ([1]; 5 μM, 5 pmol enzyme): 3.96% and 2.43% and −4.94%
Percent of Parent Disappearance Mean ± SD ([1]; 5 μM, 5 pmol enzyme): 0.486 ± 4.76%
Percent of Parent Disappearance Mean ± SD [1, 6]: 0.486±4.76%
Individual Raw Data Observed ([1]; 5 μM, 20 pmol enzyme): 2.456 µM and 2.487 µM and 2.684 µM
Percent of Parent Disappearance Individual ([1]; 5 μM, 20 pmol enzyme): 1.36% and 0.129% and −7.81%
Percent of Parent Disappearance Mean ± SD ([1]; 5 μM, 20 pmol enzyme): −2.11 ± 4.98%
Percent of Parent Disappearance Mean ± SD [1, 7]: 2.11±4.98%
Individual Raw Data Observed ([1]; 50 μM, 5 pmol enzyme): 24.75 µM and 23.3 µM and 23.45 µM
Percent of Parent Disappearance Individual ([1]; 50 μM, 5 pmol enzyme): −5.02% and 1.11% and 0.484%
Percent of Parent Disappearance Mean ± SD ([1]; 50 μM, 5 pmol enzyme): −1.14 ± 3.38%
Percent of Parent Disappearance Mean ± SD [1, 8]: 1.14±3.38%
Individual Raw Data Observed ([1]; 50 μM, 20 pmol enzyme): 21.74 µM and 22.68 µM and 23.15 µM
Percent of Parent Disappearance Individual ([1]; 50 μM, 20 pmol enzyme): 4.54% and 0.420% and −1.66%
Percent of Parent Disappearance Mean ± SD ([1]; 50 μM, 20 pmol enzyme): 1.10 ± 3.16%
Percent of Parent Disappearance Mean ± SD [1, 9]: 1.10±3.16%
Individual Raw Data Observed ([2]; 5 μM, 5 pmol enzyme): 2.139 µM and 2.028 µM and 1.969 µM
Percent of Parent Disappearance Individual ([2]; 5 μM, 5 pmol enzyme): −8.12% and −2.56% and 0.430%
Percent of Parent Disappearance Mean ± SD ([2]; 5 μM, 5 pmol enzyme): −3.42 ± 4.34%
Percent of Parent Disappearance Mean ± SD [2, 6]: 3.42±4.34%
Individual Raw Data Observed ([2]; 5 μM, 20 pmol enzyme): 2.14 µM and 2.225 µM and 2.128 µM
Percent of Parent Disappearance Individual ([2]; 5 μM, 20 pmol enzyme): 2.70% and −1.16% and 3.25%
Percent of Parent Disappearance Mean ± SD ([2]; 5 μM, 20 pmol enzyme): 1.60 ± 2.40%
Percent of Parent Disappearance Mean ± SD [2, 7]: 1.60±2.40%
Individual Raw Data Observed ([2]; 50 μM, 5 pmol enzyme): 21.34 µM and 20.03 µM and 19.86 µM
Percent of Parent Disappearance Individual ([2]; 50 μM, 5 pmol enzyme): −9.66% and −2.96% and −2.05%
Percent of Parent Disappearance Mean ± SD ([2]; 50 μM, 5 pmol enzyme): −4.89 ± 4.16%
Percent of Parent Disappearance Mean ± SD [2, 8]: 4.89±4.16%
Individual Raw Data Observed ([2]; 50 μM, 20 pmol enzyme): 15.71 µM and 16.25 µM and 16.51 µM
Percent of Parent Disappearance Individual ([2]; 50 μM, 20 pmol enzyme): −0.956% and −4.44% and −6.11%
Percent of Parent Disappearance Mean ± SD ([2]; 50 μM, 20 pmol enzyme): −3.84 ± 2.63%
Percent of Parent Disappearance Mean ± SD [2, 9]: 3.84±2.63%
Individual Raw Data Observed ([3]; 5 μM, 5 pmol enzyme): 2.202 µM and 3.025 µM and 2.609 µM
Percent of Parent Disappearance Mean ± SD ([3]; 5 μM, 5 pmol enzyme): −18.0 ± 18.6%
Percent of Parent Disappearance Mean ± SD [3, 6]: no disappearance of megestrol acetate was detected
Individual Raw Data Observed ([3]; 5 μM, 20 pmol enzyme): 1.94 µM and 1.985 µM and 2.045 µM
Percent of Parent Disappearance Individual ([3]; 5 μM, 20 pmol enzyme): 2.05% and −0.201% and −3.26%
Percent of Parent Disappearance Mean ± SD ([3]; 5 μM, 20 pmol enzyme): −0.468 ± 2.66%
Percent of Parent Disappearance Mean ± SD [3, 7]: no disappearance of megestrol acetate was detected
Individual Raw Data Observed ([3]; 50 μM, 5 pmol enzyme): 21.4 µM and 22.9 µM and 22.7 µM
Percent of Parent Disappearance Individual ([3]; 50 μM, 5 pmol enzyme): 1.01% and −5.95% and −5.01%
Percent of Parent Disappearance Mean ± SD ([3]; 50 μM, 5 pmol enzyme): −3.32 ± 3.78%
Percent of Parent Disappearance Mean ± SD [3, 8]: no disappearance of megestrol acetate was detected
Individual Raw Data Observed ([3]; 50 μM, 20 pmol enzyme): 19.69 µM and 20.64 µM and 20.58 µM
Percent of Parent Disappearance Individual ([3]; 50 μM, 20 pmol enzyme): −0.513% and −5.33% and −5.02%
Percent of Parent Disappearance Mean ± SD ([3]; 50 μM, 20 pmol enzyme): −3.62 ± 2.70%
Percent of Parent Disappearance Mean ± SD [3, 9]: no disappearance of megestrol acetate was detected
Individual Raw Data Observed ([4]; 5 μM, 5 pmol enzyme): 2.008 µM and 2.126 µM and 2.034 µM
Percent of Parent Disappearance Individual ([4]; 5 μM, 5 pmol enzyme): 20.4% and 15.8% and 19.4%
Percent of Parent Disappearance Mean ± SD ([4]; 5 μM, 5 pmol enzyme): 18.5 ± 02.46%
Percent of Parent Disappearance Mean ± SD [4, 6]: 18.5±2.46%
Individual Raw Data Observed ([4]; 5 μM, 20 pmol enzyme): 1.473 µM and 1.491 µM and 1.693 µM
Percent of Parent Disappearance Individual ([4]; 5 μM, 20 pmol enzyme): −1.62% and −2.86% and −16.8%
Percent of Parent Disappearance Mean ± SD ([4]; 5 μM, 20 pmol enzyme): −7.09 ± 8.42%
Percent of Parent Disappearance Mean ± SD [4, 7]: 7.09±8.42%
Individual Raw Data Observed ([4]; 50 μM, 5 pmol enzyme): 21.97 µM and 17.04 µM and 17.99 µM
Percent of Parent Disappearance Mean ± SD ([4]; 50 μM, 5 pmol enzyme): −10.5 ± 15.2%
Percent of Parent Disappearance Mean ± SD [4, 8]: 10.5±15.2%
Individual Raw Data Observed ([4]; 50 μM, 20 pmol enzyme): 21.04 µM and 21.41 µM and 21.74 µM
Percent of Parent Disappearance Individual ([4]; 50 μM, 20 pmol enzyme): −1.09% and −2.83% and −4.46%
Percent of Parent Disappearance Mean ± SD ([4]; 50 μM, 20 pmol enzyme): −2.79 ± 1.69%
Percent of Parent Disappearance Mean ± SD [4, 9]: 2.79±1.69%
Individual Raw Data Observed ([5]; 5 μM, 5 pmol enzyme): 0.8008 µM and 0.7908 µM and 0.8634 µM
Percent of Parent Disappearance Individual ([5]; 5 μM, 5 pmol enzyme): 58.1% and 58.6% and 54.8%
Percent of Parent Disappearance Mean ± SD ([5]; 5 μM, 5 pmol enzyme): 57.2 ± 02.06%
Percent of Parent Disappearance Mean ± SD [5, 6]: 57.2±2.06%
Individual Raw Data Observed ([5]; 5 μM, 20 pmol enzyme): 0.00000 ^a μM
Percent of Parent Disappearance Individual ([5]; 5 μM, 20 pmol enzyme): >93.6%
Percent of Parent Disappearance Mean ± SD ([5]; 5 μM, 20 pmol enzyme): >93.6 ± 0.000%
Percent of Parent Disappearance Mean ± SD [5, 7]: > 93.6±0.000%
Individual Raw Data Observed ([5]; 50 μM, 5 pmol enzyme): 14.3 µM and 14.66 µM and 14.98 µM
Percent of Parent Disappearance Individual ([5]; 50 μM, 5 pmol enzyme): 20.9% and 18.9% and 17.1%
Percent of Parent Disappearance Mean ± SD ([5]; 50 μM, 5 pmol enzyme): 18.9 ± 1.90%
Percent of Parent Disappearance Mean ± SD [5, 8]: 18.9±1.90%
Individual Raw Data Observed ([5]; 50 μM, 20 pmol enzyme): 5.336 µM and 5.631 µM and 6.813 µM
Percent of Parent Disappearance Individual ([5]; 50 μM, 20 pmol enzyme): 73.5% and 72.0% and 66.1%
Percent of Parent Disappearance Mean ± SD ([5]; 50 μM, 20 pmol enzyme): 70.5 ± 3.89%
Percent of Parent Disappearance Mean ± SD [5, 9]: 70.5±3.89%
percent metabolized in presence vs absence of inhibitor (unpaired two-tailed t-test) (CYP2C9): not different from the percentage of megestrol acetate metabolized in the absence of the inhibitor
metabolized in pooled human liver microsomes (CYP2C9; human, microsomes, 60 min, pH 7.4): > 20%
metabolites formed (CYP2E1): no metabolites were detected
